Experimental data as given in PubChem BioAssay AID330 (DTP/NCI, 2004).
Several values for one entry are separate records, joined by “and”; a condition that tells them apart may be missing. Identical values can stand only once. Inconclusive results and toxic doses are left out. The calls were made as follows: active = survival T/C of 150% or more; inactive = T/C below 125% in these data.

Tested on: P388 leukemia ip, CD2F1 mice, survival T/C
Assay: NCI In Vivo Anticancer Drug Screen. Data for tumor model P388 Leukemia (intraperitoneal) in CD2F1 (CDF1) mice
Settings: endpoint: median survival time, higher = longer survival
In short: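 Mice carrying the transplanted tumor received test compound or vehicle. Survival was recorded in each group, and the value is the treated-group measurement divided by that of the vehicle-treated control group.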

Measured: T/C

COc1ccc(-c2nc3ccccc3[nH]2)cc1
inactive: dose: 50.0 mg/kg/injection, schedule: Q04DX003 (ip), vehicle: saline with Tween-80 103 % of control | dose: 100.0 mg/kg/injection, schedule: Q04DX003 (ip), vehicle: saline with Tween-80 106 % of control | dose: 200.0 mg/kg/injection, schedule: Q04DX003 (ip), vehicle: saline with Tween-80 102 % of control | dose: 400.0 mg/kg/injection, schedule: Q04DX003 (ip), vehicle: saline with Tween-80 120 % of control

N#CCS(=O)(=O)c1cccc[n+]1[O-]
inactive: dose: 50.0 mg/kg/injection, schedule: Q01DX005 (ip), vehicle: saline with Tween-80 107 % of control and 115 % of control | dose: 100.0 mg/kg/injection, schedule: Q01DX005 (ip), vehicle: saline with Tween-80 118 % of control and 122 % of control | dose: 200.0 mg/kg/injection, schedule: Q01DX005 (ip), vehicle: saline with Tween-80 123 % of control

O=C(CC(O)(C(F)(F)F)C(F)(F)F)c1ccc(C(=O)CC(O)(C(F)(F)F)C(F)(F)F)cc1
inactive: dose: 12.5 mg/kg/injection, schedule: Q01DX009 (ip), vehicle: other 100 % of control | dose: 25.0 mg/kg/injection, schedule: Q01DX009 (ip), vehicle: other 100 % of control | dose: 50.0 mg/kg/injection, schedule: Q01DX009 (ip), vehicle: other 100 % of control | dose: 66.0 mg/kg/injection, schedule: Q04DX003 (ip), vehicle: other 95 % of control | dose: 100.0 mg/kg/injection, schedule: Q04DX003 (ip), vehicle: other 95 % of control | dose: 150.0 mg/kg/injection, schedule: Q04DX003 (ip), vehicle: other 100 % of control
